Results on eleven compounds are retold here after patent US7456214B2, “Chromene-containing compounds with anti-tubulin and vascular targeting activity” (Baylor University, priority 2004, dated 2008).

The subject of one assay is DU-145. Briefly: Growth inhibition, DU-145 prostate cancer cells (SRB). To be noted: Homo sapiens, 48 hours incubation, read-out: GI50 for Cell Line DU-145. The class given is cell-based. As to the method: (§1) Newly prepared compounds were evaluated for cytotoxic activity against a variety of cell lines derived from human tumors using an assay system similar to the National Cancer Institute procedure previously described (Monks et al, J. Natl. Cancer Inst., 1991). Briefly, the cell suspensions, diluted according to the particular cell type and the expected target cell density (5,000-40,000 cells per well based on cell growth characteristics), were added by pipet (100 μl) to 96-well microtiter plates. Inoculates were allowed a preincubation time of 24-28 hours at 37° C. for stabilization. Incubation with the inhibitor compounds lasted for 48 hours in […] atmosphere and 100% humidity. Determination of cell growth was performed by in situ fixation of cells, followed by staining with a protein-binding dye sulforhodamine B (SRB), which binds to the basic amino acids of cellular macromolecules. The solubilized stain was measured spectrophotometrically.
(§2) Several compounds were evaluated for cytotoxic activity against […] P388 leukemia cell lines. The effective dose or ED50 value (defined as the effective dosage required to inhibit 50% of cell growth) was measured. These and additional compounds were evaluated in terms of growth inhibitory activity against several other human cancer cell lines including: central nervous system (“CNS”, SF-268), pancreas (BXPC-3), non-small cell lung cancer (“lung-NCS”, NCI-H460), breast (MCF-7), colon (KM20L2), ovarian (OVCAR-3), and prostate (DU-145). The growth inhibition GI50(defined as the dosage required to inhibit tumor cell growth by 50%) is listed for each cell line.

The next assay has as its system NCI-H460. The experiment in a line: Growth inhibition, NCI-H460 non-small cell lung cancer cells (SRB). In kind it is cell-based. To be noted: Homo sapiens, 48 hours incubation, read-out: GI50 for Cell Line NCI-H460. How it is done:
as §1, §2

For the next assay, the system named is P388 leukemia cell lines. The experiment in a line: In vitro cytotoxicity, P388 leukemia cells (SRB). To be noted: for IC50: P388, 48 hours incubation, read-out: ED50 for P-388 Cell Line. The class given is cell-based. As to the method: as §1, §2
The subject of the next assay is KM20L2. Briefly: Growth inhibition, KM20L2 colon cancer cells (SRB). To be noted: Homo sapiens, KM-20L2, 48 hours incubation, read-out: GI50 for Cell Line KM20L2. The class given is cell-based. How it is done: as §1, §2
The subject of a further assay is BXPC-3. The experiment in a line: Growth inhibition, BXPC-3 pancreas cancer cells (SRB). The class given is cell-based. To be noted: Homo sapiens, 48 hours incubation, read-out: GI50 for Cell Line BXPC-3. How it is done:
as §1, §2

A further assay relates to purified tubulin. Briefly: In vitro inhibition of tubulin polymerization. The class given is biochemical, bovine. To be noted: 1.5 mg/ml tubulin, 15 min preincubation at 37° C., GTP-induced, 350 nm. As to the method: IC50 values for tubulin polymerization were determined according to a previously described procedure (Bai et al., Cancer Research, 1996). Purified tubulin is obtained from bovine brain cells as previously described (Hamel and Lin, Biochemistry, 1984). Various amounts of inhibitor were preincubated for 15 minutes at 37° C. with purified tubulin. After the incubation period, the reaction was cooled and GTP was added to induce tubulin polymerization. Polymerization was then monitored in a Gilford spectrophotometer at 350 nm. The final reaction mixtures (0.25 ml) contained 1.5 mg/ml tubulin, 0.6 mg/ml microtubule-associated proteins (MAPs), 0.5 mM GTP, 0.5 mM MgCl2, 4% DMSO and 0.1M 4-morpholineethanesulfonate buffer (MES, pH 6.4). IC50 is the amount of inhibitor needed to inhibit tubulin polymerization 50% with respect to the amount of […] that occurs in the absence of inhibitor.

The test system of another assay is SF-268. The experiment in a line: Growth inhibition, SF-268 CNS cancer cells (SRB). In kind it is cell-based. To be noted: Homo sapiens, 48 hours incubation, read-out: GI50 for Cell Line SF-268. How it is done: as §1, §2
The test system of the next assay is MCF-7. The experiment in a line: Growth inhibition, MCF-7 breast cancer cells (SRB). To be noted: Homo sapiens, MCF7, 48 hours incubation, read-out: GI50 for Cell Line MCF-7. In kind it is cell-based. As to the method: as §1, §2
In assay [1] the test system is MHEC-5T hemangioendothelioma tumor. The experiment in a line: Inhibition of tumor blood flow, Fluorescent Bead Assay. The class given is in vivo, SCID mice. To be noted: 24 hours post-treatment, vessel area per tumor tissue area as percentage of control. As to the method: The antivascular effects of the chromene phosphate prodrug were assessed in tumor-bearing mice using a Fluorescent Bead Assay. A MHEC-5T hemangioendothelioma tumor model was established by subcutaneous injection of 0.5×10^6 cultured transformed cell murine myocardial vascular endothelial cell line (“MHEC5-T”) cells into the right flank of Fox Chase CB-17 Severe Combined Immunodeficient (“SCID”) mice. […] At 24 hours post-treatment, mice were injected intravenously with 0.25 ml of diluted FluoSphere beads (1:6 in physiological saline) in the tail vein, sacrificed after 3 minutes, and tumor was excised for cryosectioning. Tumor cryosections at a thickness of 8 um were directly examined using quantitative fluorescent microscopy. Blood vessels were indicated by blue fluorescence from injected beads. For quantification, image analysis of 3 sections from three tumors treated in each group were examined and vascular shutdown was expressed as vessel area (mm^2) per tumor tissue area (mm^2) as a percentage of the control (“% VAPM”).

The structures appear in SMILES notation. Converted amounts (≈) assume the structure as drawn. Structures can show the parent of a compound that is named as a salt.

The GI50 is the concentration giving 50% growth inhibition.

For the compound `COc1cc(C(=O)C2=Cc3cccc(O)c3OC2)cc(OC)c1OC` [Compound 15, 3-(3′,4′,5′-Trimethoxybenzoyl)-8-hydroxy-2H-chromene], the GI50 was found to be 0.026 µg/mL (≈ 0.0759 µM) in the assay on DU-145; 0.044 µg/mL (≈ 0.129 µM) in the assay with NCI-H460; 4 µg/mL (≈ 11.7 µM) with KM20L2; 2.4 µg/mL (≈ 7.01 µM) in the assay on BXPC-3; 0.048 µg/mL (≈ 0.14 µM) in the assay with SF-268; 0.21 µg/mL (≈ 0.613 µM) in the assay with MCF-7. Also, the IC50 is 0.093 µg/mL (≈ 0.272 µM) with P388 leukemia cell lines and 2 to 4 µM in the assay with purified tubulin.
With `COc1cc2c(cc1O)C=C(C(=O)c1cc(OC)c(OC)c(OC)c1)CO2` [Compound 9, 3-(3′,4′,5′-Trimethoxybenzoyl)-6-hydroxy-7-methoxy-2H-chromene], the GI50 was 3.9 µg/mL (≈ 10.5 µM) with DU-145; 5.5 µg/mL (≈ 14.8 µM) in the assay on NCI-H460; greater than 10 µg/mL with KM20L2; 7.1 µg/mL (≈ 19.1 µM) in the assay on BXPC-3; greater than 10 µg/mL in the assay with SF-268; 7.3 µg/mL (≈ 19.6 µM) in the assay on MCF-7. Besides, the IC50 in the assay with P388 leukemia cell lines was 28.2 µg/mL (≈ 75.7 µM); with purified tubulin, greater than 40 µM.
`COc1cc(C(=O)C2=Cc3ccc(OP(=O)(O)O)c(OP(=O)(O)O)c3OC2)cc(OC)c1OC` [Compound 18, 3-(3′,4′,5′-Trimethoxybenzoyl)-7,8-diphosphate-2H-chromene tetrasodium salt]: the concentration for 50% growth inhibition (GI50) with DU-145 was 2.2 µg/mL; with NCI-H460 it was 3.5 µg/mL; in the assay with KM20L2, greater than 10 µg/mL; in the assay on BXPC-3, greater than 10 µg/mL; in the assay with SF-268, 3.4 µg/mL; in the assay with MCF-7, 4.2 µg/mL. Further, the IC50 in the assay with P388 leukemia cell lines is 0.56 µg/mL; with purified tubulin, greater than 40 µM.
With `COc1cc(C(=O)C2=Cc3ccc(O)c(O)c3OC2)cc(OC)c1OC` [Compound 17, 3-(3′,4′,5′-Trimethoxybenzoyl)-7,8-dihydroxy-2H-chromene], the GI50 was 0.23 µg/mL (≈ 0.642 µM) with DU-145; 0.34 µg/mL (≈ 0.949 µM) in the assay on NCI-H460; 6.3 µg/mL (≈ 17.6 µM) in the assay with KM20L2; 3 µg/mL (≈ 8.37 µM) with BXPC-3; 0.32 µg/mL (≈ 0.893 µM) in the assay on SF-268; 0.48 µg/mL (≈ 1.34 µM) in the assay on MCF-7. Moreover, the IC50 was 1.8 µg/mL (≈ 5.02 µM) with P388 leukemia cell lines and 10 to 20 µM in the assay with purified tubulin.
For the compound `COc1cc(OC)c2c(c1)OCC(C(=O)c1cc(OC)c(OC)c(OC)c1)=C2` [Compound 14, 3-(3′,4′,5′-Trimethoxybenzoyl)-5,7-dimethoxy-2H-chromene], the GI50 with DU-145 worked out at 0.24 µg/mL (≈ 0.621 µM); with NCI-H460 it was 0.4 µg/mL (≈ 1.04 µM); in the assay on KM20L2 it was 0.37 µg/mL (≈ 0.958 µM); with BXPC-3 it was 0.43 µg/mL (≈ 1.11 µM); in the assay on SF-268, 0.4 µg/mL (≈ 1.04 µM); in the assay with MCF-7 it was 0.47 µg/mL (≈ 1.22 µM). Besides, the IC50 was 16.3 µg/mL (≈ 42.2 µM) in the assay with P388 leukemia cell lines and 20 µM with purified tubulin.
On to `COc1ccc2c(c1)OCC(C(=O)c1cc(OC)c(OC)c(OC)c1)=C2` [Compound 8, 3-(3′,4′,5′-Trimethoxybenzoyl)-7-methoxy-2H-chromene], for which the “ED50 for P-388 Cell Line” value with P388 leukemia cell lines (48 hours incubation) stood at 2.04 µg/mL. Moreover, the IC50 in the assay on purified tubulin lay in the range of 4 to 10 µM. For the same compound, the 50% growth inhibitory concentration (GI50) in the assay on MCF-7 was determined as 0.27 µg/mL (≈ 0.758 µM).
Consider `COc1ccc2c(c1O)OCC(C(=O)c1cc(OC)c(OC)c(OC)c1)=C2` [Compound 5, 3-(3′,4′,5′-Trimethoxybenzoyl)-7-methoxy-8-hydroxy-2H-chromene], for which, in [1] (10 mg/kg single i.p.), the “% VAPM at 10 mg/kg dose” value turned out to be 80%. The “% VAPM at 100 mg/kg dose” value in assay [1] (100 mg/kg single i.p.) was found to be 90%. Besides, the IC50 in the assay on purified tubulin lay in the range of 1 to 2 µM. Also, the GI50 in the assay with MCF-7 is 0.055 µg/mL (≈ 0.148 µM).
With `COc1ccc(/C=C\c2cc(OC)c(OC)c(OC)c2)cc1O` [CA-4, Combretastatin A-4, reference compound], the IC50 in the assay on purified tubulin was […].
On to `COc1cc2c(cc1OC)OCC(C(=O)c1cc(OC)c(OC)c(OC)c1)=C2` [Compound 13, 3-(3′,4′,5′-Trimethoxybenzoyl)-6,7-dimethoxy-2H-chromene], for which the concentration for 50% growth inhibition (GI50) with DU-145 stood at 0.42 µg/mL (≈ 1.09 µM); in the assay with NCI-H460, 0.4 µg/mL (≈ 1.04 µM); in the assay with KM20L2 it was 0.4 µg/mL (≈ 1.04 µM); with BXPC-3, 0.38 µg/mL (≈ 0.983 µM); with SF-268, 0.5 µg/mL (≈ 1.29 µM); in the assay with MCF-7, 0.56 µg/mL (≈ 1.45 µM). Moreover, the IC50 is 2.5 µg/mL (≈ 6.47 µM) in the assay on P388 leukemia cell lines and 20 µM in the assay with purified tubulin.
For the compound `COc1cc(C(=O)C2=Cc3ccc(OC)c(OC)c3OC2)cc(OC)c1OC` [Compound 12, 3-(3′,4′,5′-Trimethoxybenzoyl)-7,8-dimethoxy-2H-chromene], the GI50 in the assay on DU-145 stood at 0.16 µg/mL (≈ 0.414 µM); in the assay with NCI-H460, 0.37 µg/mL (≈ 0.958 µM); with KM20L2 it was 0.4 µg/mL (≈ 1.04 µM); with BXPC-3, 0.46 µg/mL (≈ 1.19 µM); with SF-268 it was 0.34 µg/mL (≈ 0.88 µM); in the assay with MCF-7 it was 0.48 µg/mL (≈ 1.24 µM). The results for the IC50 in the assay on P388 leukemia cell lines and with purified tubulin were 0.41 µg/mL (≈ 1.06 µM) and 20 µM, respectively.
With `COc1cc(C(=O)C2=Cc3cccc(OP(=O)(O)O)c3OC2)cc(OC)c1OC` [Compound 16, 3-(3′,4′,5′-Trimethoxybenzoyl)-8-phosphate-2H-chromene disodium salt], the concentration for 50% growth inhibition (GI50) in the assay with DU-145 was found to be 0.046 µg/mL; with NCI-H460, 0.12 µg/mL; in the assay with KM20L2, 5.4 µg/mL; with BXPC-3 it was 1.6 µg/mL; with SF-268 it was 0.058 µg/mL; in the assay with MCF-7, 0.45 µg/mL. Also, the IC50 in the assay with P388 leukemia cell lines was 0.019 µg/mL.
